Reference: patent US8790902B2, “Microorganisms having enhanced tolerance to inhibitors and stress” (UT-Batelle, LLC, priority 2009, dated 2014)
“Also recorded” adds a separate entry of the source. Like-named read-outs stand apart in the source and are kept apart here.

Tests used:
[1] = tested on: Zymomonas mobilis ZM4 wild-type; assay: Bioscreen growth of Z. mobilis ZM4 wild-type in RM with inhibitors; assay type: cell-based; details: for Relative inhibitory effect on wild-type Z. mobilis growth among sodium and acetate salts: 195 mM in RM; for Final Cell Density / Growth rate: ZM4
Method: (§1) FIGS. 3A-3C. […] Z. mobilis strains were grown in RM (pH5.0) overnight, 20-μL culture were then transferred into 250-μL, RM media in the Bioscreen plate. […] Strains included in this study are: ZM4: Zymomonas mobilis ZM4 wild-type; AcR: ZM4 acetate tolerant mutant (Joachimstahl 1998); ZM4 (p42-0347): ZM4 containing a gateway plasmid p42-0347 over-expressing ZM4 gene ZMO0347; AcRIM0347: AcR insertional mutant of ZMO0347; AcRIM0347 (p42-0347): AcRIM0347 containing gateway plasmid p42-0347 over-expressing ZM4 gene ZMO0347. […] Triplicates were used for each condition.
(§2) FIGS. 4A-4E. […] Z. mobilis strains were grown in RM (pH5.0) overnight, 5-μL culture were then transferred into 250-μL RM media in the Bioscreen plate. […] Strains included in this study are: ZM4: Zymomonas mobilis ZM4 wild-type; AcR: ZM4 acetate tolerant mutant; ZM4 (p42-0347): ZM4 containing a gateway plasmid p42-0347 to express ZM4 gene ZMO0347; AcRIM0347: AcR insertional mutant of ZMO0347; AcRIM0347 (p42-0347): AcRIM0347 containing gateway plasmid p42-0347. […] Duplicate biological replicates were used for each condition.
(§3) FIGS. 5A-5E. […] Z. mobilis strains were grown in RM (pH 5.0) overnight, 5-μL culture were then transferred into 250-μL RM media in the Bioscreen plate. […] Strains included in this study are: ZM4: Zymomonas mobilis ZM4 wild-type; AcR: ZM4 acetate tolerant mutant; AcRIM0347: AcR insertional mutant of ZMO0347; AcRIM0347 (p42-0347): AcRIM0347 containing gateway plasmid p42-0347 over-expressing ZM4 gene ZMO0347.
(§4) American Type Culture Collection (ATCC31821) and the Z. mobilis acetate tolerant strain AcR has been described previously (Joachimsthal et al. 2000). ZM4 and AcR were cultured in RM medium at 30° C. S. cerevisiae wild-type, deletion mutant and GST-fusion ORF over-expression strains were obtained through Open Biosystems (Huntsville, Ala.). S. cerevisiae strains were cultured in rich YPD media. CM media with 2% glucose was used for S. cerevisiae wild-type and S. cerevisiae deletion mutants, CM media with 2% glucose minus uracil was used for S. cerevisiae GST-over expressing strains, 2% galactose was used to induce the GST-fusion strains. Plasmid-containing strains were routinely grown with antibiotics at the following concentrations (μg/mL): kanamycin of 50 for E. coli and 200 for ZM4; tetracycline, 10 for E. coli and 20 for ZM4; and gentamicin, 10 for E. coli. G418 of 200 for S. cerevisiae YKO deletion mutants. Growth was monitored turbidometrically by measuring optical density at 600nm periodically with the Bioscreen C automated microbiology growth curve analysis system (Growth Curve USA, Piscataway, N.J.).

[2] = tested on: AcR: ZM4 acetate tolerant mutant; assay type: cell-based, Zymomonas mobilis; details: AcR
Method: as §1, §2, §3, §4

AcRIM0347 (p42-0347) = assay type: cell-based, Zymomonas mobilis
Method: as §1, §2, §3, §4

[3] = tested on: AcRIM0347: AcR insertional mutant of ZMO0347; assay type: cell-based, Zymomonas mobilis; details: for Reduction of growth rate and final cell density of AcRIM0347 compared to parental strain AcR: 195 mM in RM; for Final Cell Density / Growth rate: AcRIM0347
Method: as §1, §2, §3, §4

ZM4 (p42-0347) = assay: Bioscreen growth of ZM4 (p42-0347) in RM with sodium and acetate ions; assay type: cell-based, Zymomonas mobilis; details: for Final Cell Density / Growth rate: ZM4 (p42-0347), RM pH 5.0 supplemented with 195 mM of the chemical, anaerobic
Method: as §1, §2, §4

[4] = tested on: S. cerevisiae Lsm deletion mutants; assay type: cell-based
Method: (§5) FIGS. 6A-6B. […] S. cerevisiae strains were grown in CM with 2% glucose for wild-type BY4741 and the deletion mutants, CM with 2% glucose minus uracil for GST over-expression strains. Five-μL culture was then transferred into 300-μL CM broth in the Bioscreen plate.
(§6) FIGS. 7A-7P. […] S. cerevisiae strains were grown in CM with 2% glucose (CM+glucose) for wild-type BY4741 and the deletion mutants, CM with 2% glucose and 2% galactose minus uracil (CM+glucose+2% galactose) for GST overexpression strains. A 5-μL culture was then transferred into 250-μL CM broth in the Bioscreen plate.
American Type Culture Collection (ATCC31821) and the Z. mobilis acetate tolerant strain AcR has been described previously (Joachimsthal et al. 2000). ZM4 and AcR were cultured in RM medium at 30° C. S. cerevisiae wild-type, deletion mutant and GST-fusion ORF over-expression strains were obtained through Open Biosystems (Huntsville, Ala.). S. cerevisiae strains were cultured in rich YPD media. […] Growth was monitored turbidometrically by measuring optical density at 600nm periodically with the Bioscreen C automated microbiology growth curve analysis system (Growth Curve USA, Piscataway, N.J.).

[5] = tested on: S. cerevisiae Lsm protein over-expressing strains; assay: Bioscreen growth of S. cerevisiae Lsm protein over-expressing (GST) strains with inhibitors; assay type: cell-based
Method: as §5, §6, §4

ZM4 = details: ethanol production; cited from earlier work
AcR mutant = details: cited from earlier work
Z. mobilis = assay: Bioscreen growth of Z. mobilis with pretreatment inhibitors (strain not specified); assay type: cell-based, Zymomonas mobilis
Method: FIGS. 5A-5E. Z. mobilis Hfq conferred tolerance to different classes of pretreatment inhibitors. Z. mobilis strains were grown in RM (pH 5.0) overnight, 5-μL culture were then transferred into 250-μL RM media in the Bioscreen plate. The growth differences of different strains were monitored by Bioscreen (Growth Curves USA, NJ) under anaerobic conditions in RM, pH 5.0 (A), RM with 1 g/L vanillin, pH 5.0 (B), 1 g/L furfural, pH 5.0 (C), 1 g/L HMF, pH 5.0 (D) and 0.001% H2O2 (E). Strains included in this study are: ZM4: Zymomonas mobilis ZM4 wild-type; AcR: ZM4 acetate tolerant mutant; AcRIM0347: AcR insertional mutant of ZMO0347; AcRIM0347 (p42-0347): AcRIM0347 containing gateway plasmid p42-0347 over-expressing ZM4 gene ZMO0347. This experiment has been repeated at least three times with similar result for hydrogen peroxide growth and in duplicate for the vanillin growth.
as §4

[6] = tested on: recombinant Zymomonas mobilis 8b; details: pure glucose/xylose solutions; cited from earlier work
[7] = pH 5.0; cited from earlier work
Zymomonas mobilis = details: cited from earlier work
[8] = 16 g/L (195 mM) sodium acetate in RM
[9] = RM pH 5.0 supplemented with 195 mM of the chemical, anaerobic
[10] = AcRIM0347 (p42-0347), RM pH 5.0 supplemented with 195 mM of the chemical, anaerobic
[11] = RM pH 5.0 supplemented with 195 mM of the chemical, anaerobic, NA = lack of growth
[12] = RM with HMF 0.75 g/L, furfural or vanillin 1 g/L
[13] = AcRIM0347(p42-0347), RM with HMF 0.75 g/L, furfural or vanillin 1 g/L

## CC(=O)[O-].[Na+] [NaAc, sodium acetate]
[1]
  Relative inhibitory effect on wild-type Z. mobilis growth among sodium and acetate salts: most significant inhibitory effect
[1]; [8]
  Growth of wild-type ZM4 in the presence of sodium acetate: unable to grow; also recorded: completely inhibited
[2]; [9]
  Final Cell Density: 0.63 ± 0.02 OD600 nm
  Growth rate: 0.29 ± 0.04 h⁻¹
AcRIM0347 (p42-0347); [10]
  Final Cell Density: 0.45 ± 0.002 OD600 nm
  Growth rate: 0.16 ± 0.002 h⁻¹
[3]
  Reduction of growth rate and final cell density of AcRIM0347 compared to parental strain AcR: about 60%
[3]; [11]
  Final Cell Density: 0.25 ± 0.001 OD600 nm
  Growth rate: 0.12 ± 0.004 h⁻¹
ZM4 (p42-0347); [8]
  Growth of ZM4 (p42-0347) in the presence of sodium acetate: able to grow
ZM4 (p42-0347)
  Final Cell Density: 0.59 ± 0.002 OD600 nm
  Growth rate: 0.27 ± 0.004 h⁻¹
[4]; sodium acetate 40 g/L, Lsm1, 6, 7, 9, 12, 13, 16 deletions
  Growth of Lsm deletion mutants in the presence of sodium acetate: negative effects on the growth
[5]; sodium acetate 40 g/L, Lsm1, 6, 9, 12, 13, 16
  Growth of Lsm protein over-expressing strains in the presence of sodium acetate: enhanced growth
ZM4
  Sodium acetate concentration above which parent ZM4 was inhibited significantly: above 12 g/L
AcR mutant
  Sodium acetate concentration at which AcR was capable of efficient ethanol production: 20 g/L

## [Cl-].[Na+] [NaCl, sodium chloride]
[1]
  Relative inhibitory effect on wild-type Z. mobilis growth among sodium and acetate salts: least negative influence
[1]; [11]
  Final Cell Density: 0.73 ± 0.01 OD600 nm
  Growth rate: 0.24 ± 0.008 h⁻¹
[2]; [9]
  Final Cell Density: 0.96 ± 0.01 OD600 nm
  Growth rate: 0.29 ± 0.005 h⁻¹
AcRIM0347 (p42-0347); [10]
  Final Cell Density: 0.72 ± 0.02 OD600 nm
  Growth rate: 0.22 ± 0.009 h⁻¹
[3]
  Reduction of growth rate and final cell density of AcRIM0347 compared to parental strain AcR: reduced by at least a quarter
[3]; [11]
  Final Cell Density: 0.73 ± 0.03 OD600 nm
  Growth rate: 0.21 ± 0.008 h⁻¹
ZM4 (p42-0347)
  Final Cell Density: 0.84 ± 0.01 OD600 nm
  Growth rate: 0.25 ± 0.008 h⁻¹
[4]; 305 mM NaCl in CM broth
  Growth differences between Lsm mutants and wild-type BY4741: not observed
[5]; 305 mM NaCl
  Growth of Lsm overexpression strains compared to wild-type BY4741: grew similarly to wild-type BY4741

## COc1cc(C=O)ccc1O [Vanillin, vanillin]
[1]; [12]
  Final Cell Density: 0.69 ± 0.006 OD600 nm
  Growth rate: 0.26 ± 0.001 h⁻¹
[2]; [12]
  Final Cell Density: 0.71 ± 0.01 OD600 nm
  Growth rate: 0.26 ± 0.01 h⁻¹
AcRIM0347 (p42-0347); [13]
  Final Cell Density: 0.70 ± 0.01 OD600 nm
  Growth rate: 0.20 ± 0.003 h⁻¹
AcRIM0347 (p42-0347); Table 4, FIGS. 5A-5D
  Lag phase of AcRIM0347 (p42-0347) versus AcRIM0347 grown with inhibitor: shorter lag phases
[3]; [12]
  Final Cell Density: 0.66 ± 0.01 OD600 nm
  Growth rate: 0.20 ± 0.006 h⁻¹
Z. mobilis; Table 4 conditions
  Relative inhibitory effect on Z. mobilis among vanillin, furfural and HMF: most significant inhibitory effect
Z. mobilis; in the presence of the inhibitor, 11 h without any inhibitor (FIGS. 5A-5D)
  Time to complete active growth and reach the stationary phase: ~21 h
[5]; 0.75 g/L
  Growth of Lsm overexpression strains with inhibitor: detrimental effect on growth

## CC(=O)O [acetic acid]
[6]
  Acetic acid concentration tolerated: up to 16 g/L
[7]
  Fraction in the uncharged and undissociated form (HAc): 36%

## CCO [ethanol]
Zymomonas mobilis
  Ethanol tolerance: 12%
